Values joined by “and” are separate entries in the source; they are usually repeats but may differ in a detail not shown here. Equal entries are not always repeated. Inconclusive results and toxic doses are left out. How the source made its calls: active means survival T/C of 150% or more; inactive means T/C below 125% in these data.
System: P388 leukemia ip, CD2F1 mice, survival T/C
Test: NCI In Vivo Anticancer Drug Screen. Data for tumor model P388 Leukemia (intraperitoneal) in CD2F1 (CDF1) mice
Details: endpoint: median survival time, higher = longer survival
Procedure, shortened: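 Mice carrying the transplanted tumor received test compound or vehicle. Survival was recorded in each group, and the value is the treated-group measurement divided by that of the vehicle-treated control group.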

[1] = dose: 50.0 mg/kg/injection, schedule: Q01DX009 (ip), vehicle: saline with Tween-80
[2] = dose: 100.0 mg/kg/injection, schedule: Q01DX009 (ip), vehicle: saline with Tween-80
[3] = dose: 200.0 mg/kg/injection, schedule: Q01DX009 (ip), vehicle: saline with Tween-80
[4] = dose: 12.5 mg/kg/injection, schedule: Q01DX009 (ip), vehicle: saline with Tween-80
[5] = dose: 50.0 mg/kg/injection, schedule: Q01DX005 (ip), vehicle: saline with Tween-80
[6] = dose: 100.0 mg/kg/injection, schedule: Q01DX005 (ip), vehicle: saline with Tween-80
[7] = dose: 60.0 mg/kg/injection, schedule: Q01DX005 (ip), vehicle: Klucel (hydroxypropylcellulose) (HPC)
[8] = dose: 120.0 mg/kg/injection, schedule: Q01DX005 (ip), vehicle: Klucel (hydroxypropylcellulose) (HPC)
[9] = dose: 200.0 mg/kg/injection, schedule: Q01DX005 (ip), vehicle: saline with Tween-80
[10] = dose: 60.0 mg/kg/injection, schedule: Q01DX005 (ip), vehicle: saline with Tween-80
[11] = dose: 120.0 mg/kg/injection, schedule: Q01DX005 (ip), vehicle: saline with Tween-80
[12] = dose: 50.0 mg/kg/injection, schedule: Q01DX009 (ip), vehicle: other
[13] = dose: 100.0 mg/kg/injection, schedule: Q01DX009 (ip), vehicle: other

Measured: T/C

NC(=S)c1ccc(N=Cc2c(O)ccc3ccccc23)cc1
inactive: dose: 50.0 mg/kg/injection, schedule: Q01DX001 (ip), vehicle: Klucel (hydroxypropylcellulose) (HPC) 100 % of control | dose: 100.0 mg/kg/injection, schedule: Q01DX001 (ip), vehicle: Klucel (hydroxypropylcellulose) (HPC) 94 % of control | dose: 200.0 mg/kg/injection, schedule: Q01DX001 (ip), vehicle: Klucel (hydroxypropylcellulose) (HPC) 97 % of control

C(=N\Nc1nc2ccccc2s1)/c1ccc(/C=N/Nc2nc3ccccc3s2)cc1
inactive: [1] 105 % of control | [2] 105 % of control | [3] 102 % of control

COc1ccc(N=NNc2ccc(OC)cc2)cc1
inactive: dose: 6.25 mg/kg/injection, schedule: Q01DX009 (ip), vehicle: saline with Tween-80 104 % of control | dose: 6.25 mg/kg/injection, schedule: Q04DX003 (ip), vehicle: saline with Tween-80 95 % of control | [4] 104 % of control | dose: 12.5 mg/kg/injection, schedule: Q04DX003 (ip), vehicle: saline with Tween-80 108 % of control | dose: 25.0 mg/kg/injection, schedule: Q04DX003 (ip), vehicle: saline with Tween-80 116 % of control

CCCC1OC(/C=C/c2ccccc2)OCC1CC (centres undefined)
inactive: [2] 101 % of control and 108 % of control and 109 % of control | [3] 101 % of control and 116 % of control (2×) | dose: 400.0 mg/kg/injection, schedule: Q01DX009 (ip), vehicle: saline with Tween-80 116 % of control and 120 % of control

O=P1(NCCCNP2(=O)OC(CCl)=NC2c2ccccc2Cl)OC(CCl)=NC1c1ccccc1Cl (centres undefined)
inactive: dose: 60.0 mg/kg/injection, schedule: Q01DX005 (ip), vehicle: saline 93 % of control | dose: 120.0 mg/kg/injection, schedule: Q01DX005 (ip), vehicle: saline 98 % of control | dose: 240.0 mg/kg/injection, schedule: Q01DX005 (ip), vehicle: saline 103 % of control

Cn1cccc1/C=N/N1CC(=O)N(c2ccccc2)CC1=O
inactive: [5] 108 % of control | [6] 100 % of control

COCN(C)N=Nc1ccc(C#N)cc1
inactive: [7] 100 % of control | [8] 117 % of control | dose: 240.0 mg/kg/injection, schedule: Q01DX005 (ip), vehicle: Klucel (hydroxypropylcellulose) (HPC) 117 % of control

COC(=O)c1nc(N)nc(C(=O)OC)c1C(=O)c1cccc([N+](=O)[O-])c1
inactive: [7] 100 % of control | [8] 101 % of control

O=c1[nH]c(-c2cccnc2)nnc1-c1ccc(Cl)cc1
inactive: [5] 102 % of control | [6] 103 % of control | [9] 96 % of control

CCCCCCCCCCN1CCC(N2CCCCC2)CC1
inactive: dose: 12.5 mg/kg/injection, schedule: Q01DX009 (ip), vehicle: saline 98 % of control | dose: 25.0 mg/kg/injection, schedule: Q01DX009 (ip), vehicle: saline 100 % of control | dose: 50.0 mg/kg/injection, schedule: Q01DX009 (ip), vehicle: saline 99 % of control | dose: 100.0 mg/kg/injection, schedule: Q01DX009 (ip), vehicle: saline 93 % of control

COCCOCOCCCC#C[Si](C)(C)C
inactive: [10] 100 % of control | [11] 106 % of control | dose: 240.0 mg/kg/injection, schedule: Q01DX005 (ip), vehicle: saline with Tween-80 106 % of control

COc1cc(CC(NC(C)=O)C(=O)O)cc(OC)c1OC (centres undefined)
inactive: dose: 100.0 mg/kg/injection, schedule: Q01DX001 (ip), vehicle: saline 105 % of control | dose: 200.0 mg/kg/injection, schedule: Q01DX001 (ip), vehicle: saline 99 % of control | dose: 400.0 mg/kg/injection, schedule: Q01DX001 (ip), vehicle: saline 100 % of control

Brc1ccc2[nH]c3nc(N/N=C/c4cccs4)nnc3c2c1
inactive: dose: 100.0 mg/kg/injection, schedule: Q04DX002 (ip), vehicle: saline with Tween-80 90 % of control | dose: 200.0 mg/kg/injection, schedule: Q04DX002 (ip), vehicle: saline with Tween-80 99 % of control | dose: 400.0 mg/kg/injection, schedule: Q04DX002 (ip), vehicle: saline with Tween-80 106 % of control

O=c1c2ccccc2on1CN1CCN(Cn2oc3ccccc3c2=O)CC1
inactive: dose: 50.0 mg/kg/injection, schedule: Q01DX005 (ip), vehicle: water 106 % of control | dose: 100.0 mg/kg/injection, schedule: Q01DX005 (ip), vehicle: water 108 % of control | dose: 200.0 mg/kg/injection, schedule: Q01DX005 (ip), vehicle: water 111 % of control

NC(=O)Nc1cc2oc(=O)[nH]c2cc1Cl
inactive: [5] 94 % of control | [6] 95 % of control | [9] 90 % of control

NC(=S)SCCC(=O)N1CCCC1
inactive: dose: 25.0 mg/kg/injection, schedule: Q01DX005 (ip), vehicle: Klucel (hydroxypropylcellulose) (HPC) 103 % of control | dose: 50.0 mg/kg/injection, schedule: Q01DX005 (ip), vehicle: Klucel (hydroxypropylcellulose) (HPC) 97 % of control | dose: 100.0 mg/kg/injection, schedule: Q01DX005 (ip), vehicle: Klucel (hydroxypropylcellulose) (HPC) 99 % of control | dose: 200.0 mg/kg/injection, schedule: Q01DX005 (ip), vehicle: Klucel (hydroxypropylcellulose) (HPC) 101 % of control

CCC/C=C(\CC)COC(=O)Nc1ccccc1
inactive: [5] 86 % of control | [6] 100 % of control

CNC(=O)OCc1c(COC(=O)NC)c(-c2ccc(N)cc2)n(C)c1C
inactive: dose: 6.25 mg/kg/injection, schedule: Q01DX009 (ip), vehicle: distilled water + Tween-80 106 % of control and 92 % of control | dose: 12.5 mg/kg/injection, schedule: Q01DX009 (ip), vehicle: distilled water + Tween-80 119 % of control and 98 % of control | dose: 25.0 mg/kg/injection, schedule: Q01DX009 (ip), vehicle: distilled water + Tween-80 100 % of control and 123 % of control | dose: 50.0 mg/kg/injection, schedule: Q01DX009 (ip), vehicle: distilled water + Tween-80 119 % of control

COc1cc(C=Nc2cc(Cl)c(Cl)c(Cl)c2)ccc1N(CCCl)CCCl
inactive: dose: 0.79 mg/kg/injection, schedule: Q01DX009 (ip), vehicle: Klucel (hydroxypropylcellulose) (HPC) 105 % of control

O=[N+]([O-])c1cccc2c1CCCC2
inactive: [4] 100 % of control | dose: 25.0 mg/kg/injection, schedule: Q01DX009 (ip), vehicle: saline with Tween-80 109 % of control | [1] 90 % of control

OC(CNC1CCCCC1)c1ccccc1 (centres undefined)
inactive: dose: 6.25 mg/kg/injection, schedule: Q01DX009 (ip), vehicle: Klucel (hydroxypropylcellulose) (HPC) 98 % of control | dose: 12.5 mg/kg/injection, schedule: Q01DX009 (ip), vehicle: Klucel (hydroxypropylcellulose) (HPC) 100 % of control | dose: 25.0 mg/kg/injection, schedule: Q01DX009 (ip), vehicle: Klucel (hydroxypropylcellulose) (HPC) 95 % of control | dose: 50.0 mg/kg/injection, schedule: Q01DX009 (ip), vehicle: Klucel (hydroxypropylcellulose) (HPC) 109 % of control

Cc1cccc(C)c1Nc1nnc(-c2ccc(N(C)C)cc2)s1
inactive: [10] 86 % of control | [11] 87 % of control

CS(=O)(=O)OCC1NC(=O)C(COS(C)(=O)=O)NC1=O (centres undefined)
inactive: [12] 106 % of control and 103 % of control | [13] 98 % of control and 103 % of control | dose: 200.0 mg/kg/injection, schedule: Q01DX009 (ip), vehicle: other 107 % of control | dose: 400.0 mg/kg/injection, schedule: Q01DX009 (ip), vehicle: other 103 % of control

COC1/C=C/OC2(C)Oc3c(C)c(O)c4c(O)c(c(/C=N/N5C(C)CN(Cc6ccccc6O)CC5C)c(O)c4c3C2=O)NC(=O)/C(C)=C\C=C\C(C)C(O)C(C)C(O)C(C)C(OC(C)=O)C1C (centres undefined)
inactive: [1] 92 % of control | [2] 96 % of control | [3] 91 % of control

NNC(=O)C1CC2CCCCC2CC1O (centres undefined)
inactive: dose: 100.0 mg/kg/injection, schedule: Q04DX002 (ip), vehicle: Klucel (hydroxypropylcellulose) (HPC) 101 % of control | dose: 200.0 mg/kg/injection, schedule: Q04DX002 (ip), vehicle: Klucel (hydroxypropylcellulose) (HPC) 99 % of control | dose: 400.0 mg/kg/injection, schedule: Q04DX002 (ip), vehicle: Klucel (hydroxypropylcellulose) (HPC) 108 % of control

COc1ccc(-c2nccc3cc(OC)c(OC)cc23)cc1O
inactive: dose: 25.0 mg/kg/injection, schedule: Q01DX009 (ip), vehicle: other 100 % of control | [12] 86 % of control | [13] 86 % of control
